Laboratory results from US6528528B2 (Warner-Lambert Company, priority 1997, dated 2003).

Test system: not given
Test: not given
Conditions: not given

| Structure (SMILES) | melting point |
| --- | --- |
| Cc1ccc(C(=O)Nc2ccccc2)cc1N [Example 1, 3-Amino-4-methyl-N-phenyl-benzamide] | 149 to 151 °C |
| COc1ccc(C(=O)Nc2ccc(Cl)cc2)cc1N [Example 2, 3-Amino-4-methoxy-N-(4-chlorophenyl)-benzamide] | 191 to 192 °C |
| Nc1cc(C(=O)Nc2ccccc2)ccc1Cl [Example 13, 3-Amino-4-chloro-N-phenyl-benzamide] | 194 to 197 °C |
| Nc1cc(NC(=O)c2ccc(Cl)c(Cl)c2)ccc1F [Example 22, 3,4-Dichloro-N-(3-amino-4-fluorophenyl)-benzamide] | 151 to 153 °C |
| COc1ccc(NC(=O)Nc2ccccc2)cc1N [Example 24, 1-(3-Amino-4-methoxyphenyl)-3-phenyl-urea] | 174 to 175 °C |
| COc1ccc(NC(=O)c2ccccc2)cc1Nc1ccccc1 [Example 49, N-[3-(Phenylamino)-4-methoxy-phenyl]-benzamide] | 209 to 210 °C |

Further lines, results first:

| melting point | Structure (SMILES) |
| --- | --- |
| 193 to 196 °C | COc1ccc(C(=O)Nc2cccnc2)cc1N [Example 5, 3-Amino-4-methoxy-N-(3-pyridyl)-benzamide] |
| 179 to 180 °C | COc1ccc(C(=O)Nc2cccnc2)cc1NC(=S)Nc1ccc(Cl)c(Cl)c1 [Example 100, 3-[3-(3,4-Dichlorophenyl)-thioureido]-4-methoxy-N-pyridin-3-yl-benzamide] |
| 188 to 189 °C | COc1ccc(C(=O)Nc2cc(C)cc(C)c2)cc1NC(=S)Nc1cccc(C)c1 [Example 103, N-(3,5-Dimethylphenyl)-4-methoxy-3-(3-m-tolyl-thioureido)-benzamide] |
| > 230 °C (dec.) | COc1ccc(C(=O)Nc2ccc(Cl)c(Cl)c2)cc1NS(=O)(=O)c1cc(Cl)cc(Cl)c1 [Example 117, 3-(3,5-Dichloro-benzenesulfonylamino)-4-methoxy-N-(3,4-dichlorophenyl)-benzamide] |

Molecular target: T1, rabbit reticulocyte 15-LO (Oryctolagus cuniculus, UniProt P12530)
T1 construct: Fifteen-lipoxygenase was obtained from phenylhydrazine-treated rabbits and purified per the method of Rapoport; from tissue; host or cells: reticulocytes of phenylhydrazine-treated rabbits
T1 sequence (P12530 1-663): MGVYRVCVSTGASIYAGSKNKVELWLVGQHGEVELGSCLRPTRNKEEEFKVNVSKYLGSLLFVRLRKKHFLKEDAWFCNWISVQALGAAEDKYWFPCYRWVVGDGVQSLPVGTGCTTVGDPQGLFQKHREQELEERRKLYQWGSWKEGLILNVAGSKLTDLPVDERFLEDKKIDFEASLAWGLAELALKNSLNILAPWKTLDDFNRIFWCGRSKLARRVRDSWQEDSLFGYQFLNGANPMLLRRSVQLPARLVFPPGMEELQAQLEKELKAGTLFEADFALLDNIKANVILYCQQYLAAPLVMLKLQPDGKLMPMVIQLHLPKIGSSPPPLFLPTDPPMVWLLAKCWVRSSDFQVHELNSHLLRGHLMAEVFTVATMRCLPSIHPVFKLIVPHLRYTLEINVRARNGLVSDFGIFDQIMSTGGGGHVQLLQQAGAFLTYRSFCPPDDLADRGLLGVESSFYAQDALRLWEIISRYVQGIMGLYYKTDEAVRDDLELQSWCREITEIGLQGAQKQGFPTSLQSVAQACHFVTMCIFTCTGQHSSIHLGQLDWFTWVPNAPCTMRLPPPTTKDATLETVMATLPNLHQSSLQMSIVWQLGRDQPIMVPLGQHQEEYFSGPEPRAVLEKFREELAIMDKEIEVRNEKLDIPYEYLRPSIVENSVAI
Test: Rabbit Reticulocyte 15-LO Assay (h15LO)
Type: biochemical
Conditions: Table 1; 2U rabbit reticulocyte 15-LO, 174 μM linoleic acid, 15 minutes at 4° C.
In short: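 Purified rabbit reticulocyte 15-LO (2U) incubated with inhibitor and 174 μM linoleic acid in PBS with 0.2% Na cholate for 15 minutes at 4° C. 13-HPODE quantified by peak area against 13-HODE standard curve; % inhibition relative to uninhibited reaction.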

| IC50 | Structure (SMILES) |
| --- | --- |
| 290 nM | COc1ccc(C(=O)Nc2ccc(Cl)cc2)cc1N [Example 2, 3-Amino-4-methoxy-N-(4-chlorophenyl)-benzamide] |
| 38 nM | COc1ccc(C(=O)Nc2cccnc2)cc1N [Example 5, 3-Amino-4-methoxy-N-(3-pyridyl)-benzamide] |

Same assay, conditions: Table 2; 2U rabbit reticulocyte 15-LO, 174 μM linoleic acid, 15 minutes at 4° C.

| Structure (SMILES) | IC50 |
| --- | --- |
| COc1ccc(C(=O)Nc2ccccc2)cc1CNS(=O)(=O)c1cc(Cl)cc(Cl)c1 [Example 249, 3-[(3,5-Dichloro-benzenesulfonylamino)-methyl]-4-methoxy-N-phenyl-benzamide] | 58 nM |
| COc1ccc(C(=O)Nc2ccccc2)cc1NCc1cccs1 [Example 259, 4-Methoxy-3-[(thiophen-2-ylmethyl)-amino]-N-phenyl-benzamide] | 137 nM |
| COc1ccc(C(=O)Nc2ccc(F)cc2)cc1NCc1cccs1 [Example 260, 4-Methoxy-3-[(thiophen-2-ylmethyl)-amino]-N-(4-fluoro-phenyl)-benzamide] | 186 nM |
| COc1ccc(C(=O)Nc2ccccc2)cc1NCc1ccc2c(c1)OCO2 [Example 266, 3-[(Benzo[1,3]dioxol-5-ylmethyl)-amino]-4-methoxy-N-phenyl-benzamide] | 197 nM |
| COc1ccc(C(=O)Nc2ccccc2)cc1NCc1cc(F)cc(F)c1 [Example 267, 4-Methoxy-3-(3,5-difluoro-benzylamino)-N-phenyl-benzamide] | 198 nM |
| COc1ccc(C(=O)Nc2ccccc2)cc1NCc1ccc(N(C)C)cc1 [Example 268, 3-(4-Dimethylamino-benzylamino)-4-methoxy-N-phenyl-benzamide] | 213 nM |
| COc1ccc(C(=O)Nc2ccccc2)cc1NCc1cccc(C(F)(F)F)c1 [Example 269, 4-Methoxy-3-(3-trifluoromethyl-benzylamino)-N-phenyl-benzamide] | 221 nM |
| COc1ccc(C(=O)Nc2ccccc2)cc1NCc1ccccc1F [Example 270, 4-Methoxy-3-(2-fluoro-benzylamino)-N-phenyl-benzamide] | 241 nM |
| COc1ccc(C(=O)Nc2ccccc2)cc1NCc1ccc2c(c1)OCCO2 [Example 271] | 302 nM |

More lines, now with the values ahead:

| IC50 | Structure (SMILES) |
| --- | --- |
| 40 nM | COc1ccc(C(=O)Nc2ccccc2)cc1CNC(=S)Nc1cc(Cl)cc(Cl)c1 [Example 247, 3-[3-(3,5-Dichloro-phenyl)-thioureidomethyl]-4-methoxy-N-phenyl-benzamide] |
| 46 nM | COc1ccc(C(=O)Nc2ccccc2)cc1NS(=O)(=O)c1cc(Cl)cc(Cl)c1 [Example 248, 3-(3,5-Dichloro-benzenesulfonylamino)-4-methoxy-N-phenyl-benzamide] |
| 35 nM | COc1ccc(C(=O)Nc2ccc(F)c(F)c2)cc1NCc1cccs1 [Example 258, 4-Methoxy-3-[(thiophen-2-ylmethyl)-amino]-N-(3,4-difluoro-phenyl)-benzamide] |
| 37 nM | COc1ccc(NC(=O)c2ccc(Cl)c(Cl)c2)cc1NCc1cccs1 [Example 264, 3,4-Dichloro-N-{4-methoxy-3-[(thiophen-2-ylmethyl)-amino]-phenyl}-benzamide] |
| 304 nM | COc1ccc(C(=O)Nc2ccccc2)cc1NCc1ccc(O)cc1 [Example 272, 3-(4-Hydroxy-benzylamino)-4-methoxy-N-phenyl-benzamide] |
| 385 nM | COc1ccc(C(=O)Nc2ccccc2)cc1NCc1cccc(C)c1 [Example 273, 4-Methoxy-3-(3-methyl-benzylamino)-N-phenyl-benzamide] |
| 391 nM | COc1ccc(C(=O)Nc2ccccc2)cc1NCc1ccc(F)c(F)c1 [Example 274, 3-(3,4-Difluoro-benzylamino)-4-methoxy-N-phenyl-benzamide] |

Same assay, conditions: Table 2; concentration not given

| Structure (SMILES) | h15LO, value given as bare % |
| --- | --- |
| COc1ccc(NC(=O)c2ccc(F)c(F)c2)cc1NCc1cccc(C(=O)O)c1 [Example 246, 3-{[5-(3,4-Difluoro-benzoylamino)-2-methoxy-phenylandno]-methyl}-benzoic Acid] | 59.75% |
| COc1ccc(C(=O)Nc2ccccc2)cc1N(S(=O)(=O)c1cc(Cl)cc(Cl)c1)S(=O)(=O)c1cc(Cl)cc(Cl)c1 [Example 251, 3-[Bis[(3,5-dichlorophenyl)sulfonyl]amino]-4-methoxy-N-phenyl-benzamide] | 62.01% |
| Cc1ccc(C(=O)Nc2ccccc2)cc1NC(=O)c1cc(Cl)cc(Cl)c1 [Example 255, 3-[(3,5-Dichlorobenzoyl)amino]-4-methyl-N-phenyl-benzamide] | 47% |
| CCOC(=O)c1cccc(NC(=O)c2ccc(OC)c(NCc3cccs3)c2)c1 [Example 263, 3-{4-Methoxy-3-[(thiophen-2-ylmethyl)-amino]-benzoylamino}-benzoic Acid Ethyl Ester] | 53.51% |

The remaining lines, values ahead:

| h15LO, value given as bare % | Structure (SMILES) |
| --- | --- |
| 98.02% | COc1ccc(NC(=O)c2ccc(F)c(F)c2)cc1NCc1cccc(O)c1 [Example 245, 3,4-Difluoro-N-[3-(3-hydroxy-benzylamino)-4-methoxy-phenyl]-benzamide] |
| 51% | COc1ccc(C(=O)Nc2ccccc2)cc1NC(=S)Nc1cccc([N+](=O)[O-])c1 [Example 254, 4-Methoxy-3-[3-(3-nitro-phenyl)-thioureido]-N-phenyl-benzamide] |
| 98.57% | COc1ccc(C(=O)Nc2ccc(Cl)c(Cl)c2)cc1NCc1cccs1 [Example 261, 4-Methoxy-3-[(thiophen-2-ylmethyl)-amino]-N-(3,4-dichloro-phenyl)-benzamide] |
| 67.58% | COc1ccc(C(=O)Nc2cccnc2)cc1NCc1cccs1 [Example 262, 4-Methoxy-3-[(thiophen-2-ylmethyl)-amino]-N-pyridin-3-yl-benzamide] |
| 98.89% | COc1ccc(NC(=O)c2ccc(F)c(F)c2)cc1NCc1cccs1 [Example 265, 3,4-Difluoro-N-{4-methoxy-3-[(thiophen-2-ylmethyl)-amino]-phenyl}-benzamide] |
